Structures are written as SMILES. A value given as a limit tells only on which side of the number the result lay.

Assay [1] addresses MAP kinase-interacting serine/threonine-protein kinase 1 (Homo sapiens) (UniProt Q9BUB5). The assay is described as follows: Selectivity interaction (KinomeScan (DiscoverX)) EUB0001079a MKNK1. As to conditions: at 1 µM.
Assay [2] has as its target Protein arginine N-methyltransferase 1 (Homo sapiens, UniProt Q99873). The assay is described as follows: Selectivity interaction (Methyltransferase screen (Scintillation proximity assays)) EUB0000255b PRMT1. On the technique in general: SPA uses beads or plates that emit light when radiolabelled molecules are held near them.
Assay [3] has as its system Epidermal growth factor receptor (Homo sapiens), P00533 [G719C]. The assay can be described thus: (§1) Selectivity interaction (KinomeScan (DiscoverX)) EUB0000045b EGFR.
In assay [4] the test system is Epidermal growth factor receptor (Homo sapiens), P00533 [G719S]. Described as §1.
The subject of assay [5] is Epidermal growth factor receptor (Homo sapiens), P00533 [L858R,T790M]. The description is as §1.
For assay [6], the system named is Epidermal growth factor receptor (Homo sapiens), P00533 [L858R]. The assay is described as §1.
The subject of assay [7] is Epidermal growth factor receptor (Homo sapiens), P00533 [L861Q]. The description is as §1.
Assay [8] deals with Epidermal growth factor receptor (Homo sapiens), P00533 [T790M]. Described as §1.
Assay [9] deals with Epidermal growth factor receptor (Homo sapiens), P00533 [UNDEFINED MUTATION]. The description is as §1.
Assay [10] deals with Epidermal growth factor receptor (Homo sapiens, UniProt P00533). Described as §1.
Assay [11] concerns the target T1, Serine/threonine-protein kinase LATS2 (Homo sapiens) (UniProt Q9NRM7).
T1 sequence (whole entry): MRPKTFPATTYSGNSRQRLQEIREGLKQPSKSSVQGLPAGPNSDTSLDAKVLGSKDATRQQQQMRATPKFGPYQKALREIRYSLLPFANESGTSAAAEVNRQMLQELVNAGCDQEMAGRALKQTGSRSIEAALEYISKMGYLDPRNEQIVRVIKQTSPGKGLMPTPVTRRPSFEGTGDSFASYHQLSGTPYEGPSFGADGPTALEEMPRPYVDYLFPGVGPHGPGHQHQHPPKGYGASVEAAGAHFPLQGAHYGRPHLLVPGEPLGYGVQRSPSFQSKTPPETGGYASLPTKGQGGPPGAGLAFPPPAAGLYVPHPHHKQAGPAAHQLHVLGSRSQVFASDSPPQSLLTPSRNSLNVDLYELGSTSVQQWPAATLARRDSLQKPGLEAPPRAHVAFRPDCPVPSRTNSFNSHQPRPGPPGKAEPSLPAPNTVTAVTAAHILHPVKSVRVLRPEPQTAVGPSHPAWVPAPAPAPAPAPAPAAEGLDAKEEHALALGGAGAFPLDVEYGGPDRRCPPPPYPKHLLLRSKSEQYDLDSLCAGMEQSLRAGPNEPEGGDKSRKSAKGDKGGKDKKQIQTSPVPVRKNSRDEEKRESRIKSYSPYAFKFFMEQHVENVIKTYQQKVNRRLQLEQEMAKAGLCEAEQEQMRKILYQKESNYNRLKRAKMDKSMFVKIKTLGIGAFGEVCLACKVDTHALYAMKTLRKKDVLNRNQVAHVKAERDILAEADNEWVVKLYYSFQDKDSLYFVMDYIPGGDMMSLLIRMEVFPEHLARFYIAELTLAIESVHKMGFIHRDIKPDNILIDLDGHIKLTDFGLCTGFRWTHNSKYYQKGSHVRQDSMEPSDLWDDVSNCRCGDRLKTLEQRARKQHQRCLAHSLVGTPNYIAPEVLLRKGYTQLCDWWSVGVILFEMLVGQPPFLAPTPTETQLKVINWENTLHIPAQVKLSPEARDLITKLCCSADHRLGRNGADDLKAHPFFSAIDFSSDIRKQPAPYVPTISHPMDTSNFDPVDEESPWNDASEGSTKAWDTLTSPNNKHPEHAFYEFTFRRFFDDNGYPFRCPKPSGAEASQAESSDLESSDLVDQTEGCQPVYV
The assay can be described thus: Selectivity interaction (KinomeScan (DiscoverX)) EUB0000607a LATS2. To be noted: at 10 µM.

The target of assay [12] is Death-associated protein kinase 3 (Homo sapiens) (UniProt O43293). The assay can be described thus: Selectivity interaction (Kinase panel (Invitrogen)) EUB0000639a DAPK3. As to conditions: at 200 nM.
Assay [13] concerns the target T2, Peripheral plasma membrane protein CASK (Homo sapiens) (UniProt O14936).
T2 sequence (whole entry): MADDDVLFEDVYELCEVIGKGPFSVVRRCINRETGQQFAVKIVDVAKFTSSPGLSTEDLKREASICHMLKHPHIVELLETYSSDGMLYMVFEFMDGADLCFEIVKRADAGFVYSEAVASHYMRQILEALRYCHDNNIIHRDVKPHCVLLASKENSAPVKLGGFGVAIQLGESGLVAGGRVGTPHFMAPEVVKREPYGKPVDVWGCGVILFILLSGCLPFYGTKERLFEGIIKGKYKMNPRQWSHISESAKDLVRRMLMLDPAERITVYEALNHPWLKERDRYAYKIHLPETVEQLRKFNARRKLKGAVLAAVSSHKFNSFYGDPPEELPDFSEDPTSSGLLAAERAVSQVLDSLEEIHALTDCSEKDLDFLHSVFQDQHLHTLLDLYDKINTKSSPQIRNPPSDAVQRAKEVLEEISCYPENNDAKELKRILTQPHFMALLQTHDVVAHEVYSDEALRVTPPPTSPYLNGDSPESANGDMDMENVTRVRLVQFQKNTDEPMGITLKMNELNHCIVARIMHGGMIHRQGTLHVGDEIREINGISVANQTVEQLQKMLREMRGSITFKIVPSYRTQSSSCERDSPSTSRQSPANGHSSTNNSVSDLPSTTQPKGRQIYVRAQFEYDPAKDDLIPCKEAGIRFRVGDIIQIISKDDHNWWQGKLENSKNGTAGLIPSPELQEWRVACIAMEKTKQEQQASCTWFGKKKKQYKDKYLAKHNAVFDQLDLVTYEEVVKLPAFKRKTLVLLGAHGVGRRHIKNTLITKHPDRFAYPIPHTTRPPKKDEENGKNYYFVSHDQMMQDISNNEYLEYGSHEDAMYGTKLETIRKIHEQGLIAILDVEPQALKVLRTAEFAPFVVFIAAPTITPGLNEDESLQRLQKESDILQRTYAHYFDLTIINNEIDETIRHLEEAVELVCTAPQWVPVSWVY
The assay is described as follows: Selectivity interaction (KinomeScan (DiscoverX)) EUB0000229b CASK. To be noted: at 10 µM.

Epidermal growth factor receptor (Homo sapiens), P00533 [L861Q], sequence (P00533 whole entry L861Q): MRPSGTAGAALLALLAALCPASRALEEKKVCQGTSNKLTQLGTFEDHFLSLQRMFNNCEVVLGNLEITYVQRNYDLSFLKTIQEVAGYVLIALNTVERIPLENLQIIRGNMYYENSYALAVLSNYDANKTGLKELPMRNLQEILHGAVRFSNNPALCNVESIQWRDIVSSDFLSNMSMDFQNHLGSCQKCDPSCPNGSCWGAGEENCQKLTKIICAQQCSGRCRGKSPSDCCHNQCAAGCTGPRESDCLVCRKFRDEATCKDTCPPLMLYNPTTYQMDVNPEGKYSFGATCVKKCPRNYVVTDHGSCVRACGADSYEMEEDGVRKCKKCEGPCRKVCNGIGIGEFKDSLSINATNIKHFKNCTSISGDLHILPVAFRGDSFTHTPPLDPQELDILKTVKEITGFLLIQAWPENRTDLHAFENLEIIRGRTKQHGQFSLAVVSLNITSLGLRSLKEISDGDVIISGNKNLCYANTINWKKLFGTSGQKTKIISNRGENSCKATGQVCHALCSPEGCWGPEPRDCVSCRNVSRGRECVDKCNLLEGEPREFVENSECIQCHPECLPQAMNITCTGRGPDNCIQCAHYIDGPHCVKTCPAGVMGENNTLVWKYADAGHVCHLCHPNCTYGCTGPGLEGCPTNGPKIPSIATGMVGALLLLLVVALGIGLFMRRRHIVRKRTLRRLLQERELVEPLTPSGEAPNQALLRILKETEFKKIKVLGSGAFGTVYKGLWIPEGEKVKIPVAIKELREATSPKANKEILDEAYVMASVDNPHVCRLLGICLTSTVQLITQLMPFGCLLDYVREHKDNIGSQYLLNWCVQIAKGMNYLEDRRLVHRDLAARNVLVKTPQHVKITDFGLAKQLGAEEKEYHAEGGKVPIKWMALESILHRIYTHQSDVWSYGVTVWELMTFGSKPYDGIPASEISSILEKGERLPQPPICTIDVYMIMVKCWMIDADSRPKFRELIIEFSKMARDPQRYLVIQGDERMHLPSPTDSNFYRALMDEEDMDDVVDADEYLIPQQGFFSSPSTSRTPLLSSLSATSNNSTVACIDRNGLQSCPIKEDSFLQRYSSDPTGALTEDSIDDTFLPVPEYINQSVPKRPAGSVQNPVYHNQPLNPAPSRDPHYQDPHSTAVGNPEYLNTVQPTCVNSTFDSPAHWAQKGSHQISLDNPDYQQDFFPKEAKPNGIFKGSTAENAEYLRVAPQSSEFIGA
Epidermal growth factor receptor (Homo sapiens), P00533 [T790M], sequence (P00533 whole entry T790M): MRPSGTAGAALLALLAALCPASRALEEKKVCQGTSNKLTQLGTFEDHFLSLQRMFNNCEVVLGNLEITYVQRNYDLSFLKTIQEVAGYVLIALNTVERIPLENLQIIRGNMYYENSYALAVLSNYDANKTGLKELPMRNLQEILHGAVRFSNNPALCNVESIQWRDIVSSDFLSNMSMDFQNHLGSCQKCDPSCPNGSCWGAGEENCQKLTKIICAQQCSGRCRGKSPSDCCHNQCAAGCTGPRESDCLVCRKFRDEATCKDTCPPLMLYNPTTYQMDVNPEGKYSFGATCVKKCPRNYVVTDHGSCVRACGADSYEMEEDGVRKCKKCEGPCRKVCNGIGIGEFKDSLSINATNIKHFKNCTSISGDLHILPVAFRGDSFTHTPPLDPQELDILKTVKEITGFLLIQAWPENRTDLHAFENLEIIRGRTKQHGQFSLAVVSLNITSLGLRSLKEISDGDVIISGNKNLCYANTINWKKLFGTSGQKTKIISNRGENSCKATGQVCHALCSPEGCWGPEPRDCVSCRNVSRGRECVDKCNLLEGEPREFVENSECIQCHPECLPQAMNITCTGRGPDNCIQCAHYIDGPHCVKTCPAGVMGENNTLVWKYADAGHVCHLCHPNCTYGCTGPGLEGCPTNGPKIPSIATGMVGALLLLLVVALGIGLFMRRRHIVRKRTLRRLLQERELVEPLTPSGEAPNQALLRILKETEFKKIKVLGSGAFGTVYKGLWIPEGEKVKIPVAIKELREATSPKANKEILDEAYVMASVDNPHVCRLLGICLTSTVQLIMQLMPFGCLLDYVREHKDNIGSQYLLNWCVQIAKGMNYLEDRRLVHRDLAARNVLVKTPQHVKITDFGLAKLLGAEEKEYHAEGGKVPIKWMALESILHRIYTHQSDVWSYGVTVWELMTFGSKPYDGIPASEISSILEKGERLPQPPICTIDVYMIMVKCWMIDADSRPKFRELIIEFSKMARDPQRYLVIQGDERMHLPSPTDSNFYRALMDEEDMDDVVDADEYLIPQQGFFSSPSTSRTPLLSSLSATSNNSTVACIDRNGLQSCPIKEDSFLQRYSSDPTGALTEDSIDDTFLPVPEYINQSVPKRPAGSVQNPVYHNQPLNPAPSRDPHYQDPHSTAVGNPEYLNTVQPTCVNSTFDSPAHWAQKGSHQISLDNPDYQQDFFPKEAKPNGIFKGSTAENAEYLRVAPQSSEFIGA
Epidermal growth factor receptor (Homo sapiens), P00533 [L858R], sequence (P00533 whole entry L858R): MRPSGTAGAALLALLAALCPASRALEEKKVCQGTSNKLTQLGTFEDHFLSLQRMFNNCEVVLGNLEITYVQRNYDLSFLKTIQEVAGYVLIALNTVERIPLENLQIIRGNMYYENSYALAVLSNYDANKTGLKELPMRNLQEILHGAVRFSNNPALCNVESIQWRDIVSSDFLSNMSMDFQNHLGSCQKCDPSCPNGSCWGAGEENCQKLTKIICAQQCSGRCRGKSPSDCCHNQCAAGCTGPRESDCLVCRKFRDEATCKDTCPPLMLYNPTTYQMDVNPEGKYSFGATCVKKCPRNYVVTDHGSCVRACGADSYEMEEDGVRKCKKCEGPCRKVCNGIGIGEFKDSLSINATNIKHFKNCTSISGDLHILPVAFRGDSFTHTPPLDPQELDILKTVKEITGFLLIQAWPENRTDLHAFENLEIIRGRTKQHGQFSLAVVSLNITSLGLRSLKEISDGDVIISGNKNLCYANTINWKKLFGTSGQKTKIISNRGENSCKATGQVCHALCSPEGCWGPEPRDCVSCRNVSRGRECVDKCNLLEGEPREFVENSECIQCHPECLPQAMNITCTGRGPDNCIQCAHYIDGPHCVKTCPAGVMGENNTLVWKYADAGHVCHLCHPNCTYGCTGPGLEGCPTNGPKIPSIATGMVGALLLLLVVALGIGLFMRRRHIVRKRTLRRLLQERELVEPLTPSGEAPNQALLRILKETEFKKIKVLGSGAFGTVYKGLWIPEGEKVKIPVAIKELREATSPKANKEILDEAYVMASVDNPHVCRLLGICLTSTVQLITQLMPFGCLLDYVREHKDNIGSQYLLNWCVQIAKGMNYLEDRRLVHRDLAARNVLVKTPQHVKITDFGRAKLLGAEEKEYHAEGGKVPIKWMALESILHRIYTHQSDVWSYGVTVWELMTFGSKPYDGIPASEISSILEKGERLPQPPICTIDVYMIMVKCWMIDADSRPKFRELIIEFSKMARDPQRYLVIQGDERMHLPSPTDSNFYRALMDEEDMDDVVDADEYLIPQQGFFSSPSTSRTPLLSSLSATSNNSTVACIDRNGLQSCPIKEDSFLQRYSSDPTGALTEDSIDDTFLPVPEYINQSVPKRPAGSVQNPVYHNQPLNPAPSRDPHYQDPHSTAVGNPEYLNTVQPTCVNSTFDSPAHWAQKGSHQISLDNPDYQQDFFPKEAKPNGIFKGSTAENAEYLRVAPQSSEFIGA
Protein arginine N-methyltransferase 1, sequence (Q99873 whole entry, looked up): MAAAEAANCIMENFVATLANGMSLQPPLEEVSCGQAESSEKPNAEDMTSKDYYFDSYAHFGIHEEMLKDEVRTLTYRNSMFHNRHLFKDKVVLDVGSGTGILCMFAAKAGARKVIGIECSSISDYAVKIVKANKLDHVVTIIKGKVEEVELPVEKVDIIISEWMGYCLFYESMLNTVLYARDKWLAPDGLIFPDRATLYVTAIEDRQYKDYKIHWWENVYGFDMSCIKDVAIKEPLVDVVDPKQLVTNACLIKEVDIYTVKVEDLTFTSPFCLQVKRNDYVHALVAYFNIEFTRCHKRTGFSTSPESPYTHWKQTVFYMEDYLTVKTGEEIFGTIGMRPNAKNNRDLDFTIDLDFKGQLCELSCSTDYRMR
Death-associated protein kinase 3 (Homo sapiens), sequence (O43293 whole entry, looked up): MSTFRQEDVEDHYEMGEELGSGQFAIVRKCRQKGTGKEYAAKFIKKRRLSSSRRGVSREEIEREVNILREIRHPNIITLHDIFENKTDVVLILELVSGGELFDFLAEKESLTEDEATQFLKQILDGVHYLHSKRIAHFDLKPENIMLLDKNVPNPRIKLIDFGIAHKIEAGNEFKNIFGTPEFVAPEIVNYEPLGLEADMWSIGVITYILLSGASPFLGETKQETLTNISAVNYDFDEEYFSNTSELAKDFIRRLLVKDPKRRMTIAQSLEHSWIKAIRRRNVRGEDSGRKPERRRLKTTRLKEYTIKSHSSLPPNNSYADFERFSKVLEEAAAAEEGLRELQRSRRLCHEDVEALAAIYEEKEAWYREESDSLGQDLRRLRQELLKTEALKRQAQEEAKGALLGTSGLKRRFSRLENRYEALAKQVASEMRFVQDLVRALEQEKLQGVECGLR
MAP kinase-interacting serine/threonine-protein kinase 1 (Homo sapiens), sequence (Q9BUB5 whole entry, looked up): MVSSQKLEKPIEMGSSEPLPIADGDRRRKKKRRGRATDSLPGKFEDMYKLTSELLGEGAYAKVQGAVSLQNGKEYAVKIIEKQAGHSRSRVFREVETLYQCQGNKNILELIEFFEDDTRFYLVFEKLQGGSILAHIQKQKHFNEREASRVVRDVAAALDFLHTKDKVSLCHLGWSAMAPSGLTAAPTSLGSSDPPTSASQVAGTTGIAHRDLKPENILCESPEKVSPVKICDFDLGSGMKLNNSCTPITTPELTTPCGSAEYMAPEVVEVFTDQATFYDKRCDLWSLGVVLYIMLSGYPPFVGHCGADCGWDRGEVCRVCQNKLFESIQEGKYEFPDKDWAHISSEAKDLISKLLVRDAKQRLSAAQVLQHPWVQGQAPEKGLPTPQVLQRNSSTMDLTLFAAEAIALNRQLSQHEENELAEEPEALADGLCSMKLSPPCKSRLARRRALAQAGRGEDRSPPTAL

Compound `Nc1cnc(N2CCc3cc(S(=O)(=O)Nc4c(F)cc(Cl)cc4F)cc(N4CCCC4=O)c32)nc1` [TP-020n] displayed a % of control in [1] of 98%.
In the case of `COCCN1CCC(c2cc(CN(C)C(=O)c3cccc(Oc4ccccc4)c3)ccn2)CC1`, the figures for the % activity in assay [2] (at 1 µM) and in assay [2] (at 10 µM) were 82% and above 90%, respectively.
Take `C=CC(=O)Nc1cc(-n2c(=O)ccc3cnc4ccc(-c5ccc(NS(C)(=O)=O)cc5)cc4c32)ccc1C`: the % of control in assay [3] (at 1 µM) turned out to be 73%; in assay [3] (at 10 µM), 90%; in assay [4] (at 1 µM), 90%; in [4] (at 10 µM) it was 85%; in assay [5] (at 1 µM), 100%; in [5] (at 10 µM), 44%. The % of control stood at 95% in [6] (at 1 µM); 50% in assay [6] (at 10 µM); 40% in assay [7] (at 1 µM); 45% in [7] (at 10 µM); 11% in assay [8] (at 1 µM); 2.1% in assay [8] (at 10 µM). For the same compound, the % of control was 100% in assay [9] (at 1 µM), 32% in assay [9] (at 10 µM), 82% in [10] (at 1 µM) and 25% in assay [10] (at 10 µM).
For the compound `CNC(=O)Nc1ccc(-c2nc(N3CC4CCC(C3)O4)c3cnn(C4CCC5(CC4)OCCO5)c3n2)cc1`, the % of control in [11] turned out to be 76%.
In turn, `CC[C@@H]1[C@H](F)C(=O)N[C@@H]1COc1nccc2cc(C(N)=O)c(OC)cc12` [ZIMLOVISERTIB] returned a % of inhibition in [12] of 20.3%.
Turning to `COc1cc(N(C)c2ccnc3ccc(C(F)(F)F)cc23)cc(OC)c1OC`, in assay [13], the % binding came out at 55%.
